Source: patent US11292801B2, “Calpain modulators and therapeutic uses thereof” (Blade Therapeutics, Inc., priority 2016, dated 2022)

Assays:
[1] = molecular target: T1, Human Calpain 1/NS1 (Homo sapiens, UniProt P07384); test: Biochemical inhibition of calpain 1, continuous fluorescence (FRET substrate) assay; conditions: mean, read-out: Human Calpain 1/NS1 IC50 (nM)_MEAN
T1 sequence (P07384 1-714): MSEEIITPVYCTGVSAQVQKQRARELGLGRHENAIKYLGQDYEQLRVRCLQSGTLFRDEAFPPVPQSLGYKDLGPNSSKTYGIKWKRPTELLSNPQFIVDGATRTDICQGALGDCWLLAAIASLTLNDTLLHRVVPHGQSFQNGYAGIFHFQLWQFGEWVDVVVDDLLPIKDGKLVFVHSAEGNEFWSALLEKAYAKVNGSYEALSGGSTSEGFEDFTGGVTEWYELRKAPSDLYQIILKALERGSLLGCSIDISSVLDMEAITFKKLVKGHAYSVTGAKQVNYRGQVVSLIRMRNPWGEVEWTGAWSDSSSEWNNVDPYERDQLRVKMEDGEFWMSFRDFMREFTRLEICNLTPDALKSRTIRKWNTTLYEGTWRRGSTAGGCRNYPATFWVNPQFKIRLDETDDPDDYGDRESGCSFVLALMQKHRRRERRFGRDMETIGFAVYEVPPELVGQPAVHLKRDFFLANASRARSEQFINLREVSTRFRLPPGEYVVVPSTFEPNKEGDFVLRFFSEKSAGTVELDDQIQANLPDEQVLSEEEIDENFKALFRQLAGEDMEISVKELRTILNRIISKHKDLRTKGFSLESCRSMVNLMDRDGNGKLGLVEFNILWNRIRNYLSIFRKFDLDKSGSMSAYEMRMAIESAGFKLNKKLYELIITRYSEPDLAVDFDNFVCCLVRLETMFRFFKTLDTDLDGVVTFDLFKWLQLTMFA
T1 sequence (P04632 1-268 partner): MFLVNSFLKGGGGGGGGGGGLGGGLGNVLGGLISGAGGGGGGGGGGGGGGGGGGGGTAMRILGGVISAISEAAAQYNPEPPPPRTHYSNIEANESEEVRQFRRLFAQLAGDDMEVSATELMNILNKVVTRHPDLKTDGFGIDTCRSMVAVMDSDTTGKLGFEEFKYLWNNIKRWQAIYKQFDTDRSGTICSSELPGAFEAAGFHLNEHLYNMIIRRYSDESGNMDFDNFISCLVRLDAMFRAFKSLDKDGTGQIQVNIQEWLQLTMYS
Outline: (§1)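 Continuous FRET assay with 5-FAM/QXL520 peptide substrate in 50 mM Tris pH ~7.5, 100 mM NaCl, 1 mM DTT. Enzyme preincubated with inhibitor at 25C; reaction started with substrate plus CaCl2, read at 490/520 nm for 10 min. Rates from slopes over 1-5 min, IC50 from 4-parameter logistic fit.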

[2] = molecular target: T2, Human Calpain 2/NS1 (Homo sapiens, UniProt P17655); test: Biochemical inhibition of calpain 2, continuous fluorescence (FRET substrate) assay; conditions: mean, read-out: Human Calpain 2/NS1 IC50 (nM)_MEAN
T2 sequence (P17655 1-700): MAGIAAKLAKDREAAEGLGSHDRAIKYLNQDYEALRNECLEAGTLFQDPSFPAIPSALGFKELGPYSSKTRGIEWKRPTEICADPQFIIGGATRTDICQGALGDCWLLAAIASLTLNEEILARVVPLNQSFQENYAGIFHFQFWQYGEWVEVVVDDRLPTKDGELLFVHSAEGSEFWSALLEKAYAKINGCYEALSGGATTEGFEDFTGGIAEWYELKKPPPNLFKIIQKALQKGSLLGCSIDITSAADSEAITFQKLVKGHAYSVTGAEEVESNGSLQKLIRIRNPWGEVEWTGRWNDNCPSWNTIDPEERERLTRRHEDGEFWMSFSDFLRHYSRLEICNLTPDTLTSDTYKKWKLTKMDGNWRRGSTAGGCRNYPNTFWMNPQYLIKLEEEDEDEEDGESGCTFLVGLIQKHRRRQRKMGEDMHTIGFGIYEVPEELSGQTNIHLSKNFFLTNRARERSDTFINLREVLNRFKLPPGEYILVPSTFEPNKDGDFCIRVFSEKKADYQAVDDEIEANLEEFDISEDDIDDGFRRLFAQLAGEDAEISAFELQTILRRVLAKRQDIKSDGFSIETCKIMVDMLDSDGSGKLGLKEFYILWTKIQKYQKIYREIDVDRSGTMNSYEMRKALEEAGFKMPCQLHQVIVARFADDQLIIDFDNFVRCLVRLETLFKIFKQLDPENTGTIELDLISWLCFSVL
T2 sequence (P04632 1-268 partner): T1 sequence (P04632 1-268 partner)
Outline: as §1

[3] = molecular target: T3, Human Calpain 9/NS1 (Homo sapiens, UniProt O14815); test: Biochemical inhibition of calpain 9, continuous fluorescence (FRET substrate) assay; conditions: mean, read-out: Human Calpain 9/NS1 IC50 (nM)_MEAN
T3 sequence (O14815 1-690): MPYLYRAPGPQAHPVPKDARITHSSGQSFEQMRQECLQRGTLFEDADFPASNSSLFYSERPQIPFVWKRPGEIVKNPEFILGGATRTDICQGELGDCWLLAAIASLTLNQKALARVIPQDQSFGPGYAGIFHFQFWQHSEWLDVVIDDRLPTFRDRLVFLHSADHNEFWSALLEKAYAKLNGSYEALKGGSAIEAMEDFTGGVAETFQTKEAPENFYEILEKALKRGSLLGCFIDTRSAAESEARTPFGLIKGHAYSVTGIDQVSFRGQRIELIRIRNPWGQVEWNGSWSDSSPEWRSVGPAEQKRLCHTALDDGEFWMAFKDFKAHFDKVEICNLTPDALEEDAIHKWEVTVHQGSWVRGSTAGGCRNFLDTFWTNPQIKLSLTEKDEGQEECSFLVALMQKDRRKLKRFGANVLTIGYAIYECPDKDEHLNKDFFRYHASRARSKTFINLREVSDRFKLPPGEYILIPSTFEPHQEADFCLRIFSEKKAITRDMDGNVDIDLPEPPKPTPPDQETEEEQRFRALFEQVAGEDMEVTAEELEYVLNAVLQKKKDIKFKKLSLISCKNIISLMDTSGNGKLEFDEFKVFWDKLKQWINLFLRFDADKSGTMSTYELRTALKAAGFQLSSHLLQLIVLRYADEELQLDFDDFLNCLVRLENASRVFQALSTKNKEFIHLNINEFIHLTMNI
T3 sequence (P04632 1-268 partner): T1 sequence (P04632 1-268 partner)
Outline: as §1

IC50 [1] | IC50 [2] | IC50 [3] | SMILES
> 10000 nM | > 10000 nM | > 10000 nM | Cc1cccc(C)c1NC(=O)C(=O)[C@@H]1CCCCOCCOCc2ccccc2C(=O)N1 [Compound 54, (S)—N-(2,6-dimethylphenyl)-2-oxo-2-(12-oxo-1,3,4,6,7,8,9,10,11,12-decahydrobenzo[f][1,4]dioxa[9]azacyclotetradecin-10-yl)acetamide]
> 10000 nM | 3000 to 10000 nM | 3000 to 10000 nM | CCOC(=O)CCNC(=O)C(=O)[C@@H]1CCCCOCCOCc2ccccc2C(=O)N1 [Compound 55, Ethyl (S)-3-(2-oxo-2-(12-oxo-1,3,4,6,7,8,9,10,11,12-decahydrobenzo[f][1,4]dioxa[9]azacyclotetradecin-10-yl)acetamido)propanoate]
> 10000 nM | < 3000 nM | < 3000 nM | CCOC(=O)CNC(=O)C(=O)[C@@H]1CCCCOCCOCc2ccccc2C(=O)N1 [Compound 56, Ethyl (S)-(2-oxo-2-(12-oxo-1,3,4,6,7,8,9,10,11,12-decahydrobenzo[f][1,4]dioxa[9]azacyclotetradecin-10-yl)acetyl)glycinate]
3000 to 10000 nM | < 3000 nM | < 3000 nM | NC(=O)C(=O)[C@@H]1CCCCOCCOCc2ccccc2C(=O)N1 [Compound 57, (S)-2-Oxo-2-(12-oxo-1,3,4,6,7,8,9,10,11,12-decahydrobenzo[f][1,4]dioxa[9]azacyclotetradecin-10-yl)acetamide]
> 10000 nM | > 10000 nM | > 10000 nM | CC(C)NC(=O)C(=O)[C@@H]1C/C=C\COCCOCc2ccccc2C(=O)N1 [Compound 58, (S,Z)—N-isopropyl-2-oxo-2-(12-oxo-1,3,4,6,9,10,11,12-octahydrobenzo[f][1,4]dioxa[9]azacyclotetradecin-10-yl)acetamide]
> 10000 nM | > 10000 nM | < 3000 nM | CCCCNC(=O)C(=O)[C@@H]1C/C=C\COCCOCc2ccccc2C(=O)N1 [Compound 59, (S,Z)—N-butyl-2-oxo-2-(12-oxo-1,3,4,6,9,10,11,12-octahydrobenzo[f][1,4]dioxa[9]azacyclotetradecin-10-yl)acetamide]
> 10000 nM | > 10000 nM | > 10000 nM | CCOC(=O)CCNC(=O)C(=O)[C@@H]1C/C=C\COCCOCc2ccccc2C(=O)N1 [Compound 60, Ethyl (S,Z)-3-(2-oxo-2-(12-oxo-1,3,4,6,9,10,11,12-octahydrobenzo[f][1,4]dioxa[9]azacyclotetradecin-10-yl)acetamido)propanoate]
> 10000 nM | > 10000 nM | > 10000 nM | Cc1cccc(C)c1NC(=O)C(=O)[C@@H]1C/C=C\COCCOCc2ccccc2C(=O)N1 [Compound 61, (S,Z)—N-(2,6-dimethylphenyl)-2-oxo-2-(12-oxo-1,3,4,6,9,10,11,12-octahydrobenzo[f][1,4]dioxa[9]azacyclotetradecin-10-yl)acetamide]
> 10000 nM | > 10000 nM | > 10000 nM | CC(C)NC(=O)C(=O)[C@@H]1C/C=C/COCCOCc2ccccc2C(=O)N1 [Compound 62, (S,E)-N-isopropyl-2-oxo-2-(12-oxo-1,3,4,6,9,10,11,12-octahydrobenzo[f][1,4]dioxa[9]azacyclotetradecin-10-yl)acetamide]
> 10000 nM | > 10000 nM | > 10000 nM | CCOC(=O)CCNC(=O)C(=O)[C@@H]1C/C=C/COCCOCc2ccccc2C(=O)N1 [Compound 63, Ethyl (S,E)-3-(2-oxo-2-(12-oxo-1,3,4,6,9,10,11,12-octahydrobenzo[f][1,4]dioxa[9]azacyclotetradecin-10-yl)acetamido)propanoate]
> 10000 nM | > 10000 nM | < 3000 nM | CCCCNC(=O)C(=O)[C@@H]1C/C=C/COCCOCc2ccccc2C(=O)N1 [Compound 64, (S,E)-N-butyl-2-oxo-2-(12-oxo-1,3,4,6,9,10,11,12-octahydrobenzo[f][1,4]dioxa[9]azacyclotetradecin-10-yl)acetamide]
< 3000 nM | < 3000 nM | < 3000 nM | CCNC(=O)C(=O)[C@@H]1Cc2ccc(cc2)OC/C=C/COc2cccc(c2)-c2ccn(n2)-c2ncccc2C(=O)N1 [Compound 65, N-ethyl-2-oxo-2-((2^2E,6S,11E)-4-oxo-2^1H-9,14-dioxa-5-aza-3(2,3)-pyridina-2(3,1)-pyrazola-1(1,3),8(1,4)-dibenzenacyclotetradecaphan-11-en-6-yl)acetamide]
< 3000 nM | < 3000 nM | < 3000 nM | O=C[C@@H]1Cc2ccc(cc2)OC/C=C/COc2ccc3c(cnn3-c3ncccc3C(=O)N1)c2 [Compound 66, (5S,E)-3-oxo-1^1H-8,13-dioxa-4-aza-1(1,5)-indazola-2(2,3)-pyridina-7(1,4)-benzenacyclotridecaphan-10-ene-5-carbaldehyde]
< 3000 nM | < 3000 nM | < 3000 nM | O=C[C@@H]1Cc2ccc(cc2)OCCCCOc2ccc3c(cnn3-c3ncccc3C(=O)N1)c2 [Compound 67, (5S)-3-oxo-1^1H-8,13-dioxa-4-aza-1(1,5)-indazola-2(2,3)-pyridina-7(1,4)-benzenacyclotridecaphane-5-carbaldehyde]
< 3000 nM | < 3000 nM | < 3000 nM | O=C(NC1CC1)C(=O)[C@@H]1Cc2ccc(cc2)OCCCCOc2ccc3c(cnn3-c3ncccc3C(=O)N1)c2 [Compound 68, N-cyclopropyl-2-oxo-2-((5S)-3-oxo-1^1H-8,13-dioxa-4-aza-1(1,5)-indazola-2(2,3)-pyridina-7(1,4)-benzenacyclotridecaphane-5-yl)acetamide]
3000 to 10000 nM | < 3000 nM | < 3000 nM | O=C(NC1CC1)C(=O)[C@@H]1Cc2ccc(cc2)OC/C=C/COc2ccc3c(cnn3-c3ncccc3C(=O)N1)c2 [Compound 69, N-cyclopropyl-2-oxo-2-((5S,E)-3-oxo-1^1H-8,13-dioxa-4-aza-1(1,5)-indazola-2(2,3)-pyridina-7(1,4)-benzenacyclotridecaphan-10-en-5-yl)acetamide]
